In ChEMBL document CHEMBL5126500, “Small-molecule inhibitors of breast cancer-related targets: Potential therapeutic agents for breast cancer” (Eur J Med Chem, 2021):

Assays:
[1] = test system: MX1; test: Cytotoxicity against human MX1 cells assessed as cell survival incubated for 72 hrs by MTT assay; format: functional, cell-based; conditions: MX1, 72 h
[2] = target: T1, Bromodomain-containing protein 4 (Homo sapiens, UniProt O60885); test: Inhibition of BRD4 BD1 (unknown origin)
[3] = target: T1, Bromodomain-containing protein 4; test: Inhibition of BRD4 BD2 (unknown origin)
[4] = target: T2, Poly [ADP-ribose] polymerase 1 (Homo sapiens, UniProt P09874); test: Inhibition of PARP1 (unknown origin) incubated for 1 hr by colorimetry
[5] = target: T3, Histone deacetylase 8 (Homo sapiens, UniProt Q9BY41); test: Inhibition of human recombinant HDAC8 using BML-KI178-0005 as substrate incubated for 10 mins by fluorescence based assay
T3 sequence (Q9BY41 whole entry): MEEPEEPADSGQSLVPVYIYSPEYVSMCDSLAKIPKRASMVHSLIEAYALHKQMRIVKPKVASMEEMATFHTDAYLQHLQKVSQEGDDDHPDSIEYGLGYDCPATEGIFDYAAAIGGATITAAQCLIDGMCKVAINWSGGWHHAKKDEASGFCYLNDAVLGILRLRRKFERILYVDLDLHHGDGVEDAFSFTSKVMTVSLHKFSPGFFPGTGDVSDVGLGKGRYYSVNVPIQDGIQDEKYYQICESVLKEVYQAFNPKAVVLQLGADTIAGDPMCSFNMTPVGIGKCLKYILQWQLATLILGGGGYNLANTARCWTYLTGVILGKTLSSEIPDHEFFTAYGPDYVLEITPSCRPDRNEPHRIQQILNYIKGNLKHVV

[6] = target: T2, Poly [ADP-ribose] polymerase 1; test: Inhibition of PARP1 (unknown origin) using NAD+ as substrate incubated for 30 mins by fluorescence based assay
[7] = test system: MDA-MB-436; test: Antiproliferative activity against BRCA1 deficient human MDA-MB-436 cells assessed as reduction in cell viability incubated for 96 hrs by MTT assay; format: functional, cell-based; conditions: MDA-MB-436, 96 h
[8] = target: CDK6/cyclin D3 (Homo sapiens, UniProt Q00534); test: Binding affinity to CDK6/Cyclin D3 (unknown origin) assessed as inhibition constant by radiometric assay; format: protein-complex assay
[9] = target: Serine/threonine-protein kinase PLK1 (Homo sapiens, UniProt P53350); test: Inhibition of PLK1-PBD (unknown origin) using FITC-GPMQSpTPLNG-OH as substrate incubated for 30 mins by fluorescence polarization assay
Sequence of Serine/threonine-protein kinase PLK1 (P53350 whole entry): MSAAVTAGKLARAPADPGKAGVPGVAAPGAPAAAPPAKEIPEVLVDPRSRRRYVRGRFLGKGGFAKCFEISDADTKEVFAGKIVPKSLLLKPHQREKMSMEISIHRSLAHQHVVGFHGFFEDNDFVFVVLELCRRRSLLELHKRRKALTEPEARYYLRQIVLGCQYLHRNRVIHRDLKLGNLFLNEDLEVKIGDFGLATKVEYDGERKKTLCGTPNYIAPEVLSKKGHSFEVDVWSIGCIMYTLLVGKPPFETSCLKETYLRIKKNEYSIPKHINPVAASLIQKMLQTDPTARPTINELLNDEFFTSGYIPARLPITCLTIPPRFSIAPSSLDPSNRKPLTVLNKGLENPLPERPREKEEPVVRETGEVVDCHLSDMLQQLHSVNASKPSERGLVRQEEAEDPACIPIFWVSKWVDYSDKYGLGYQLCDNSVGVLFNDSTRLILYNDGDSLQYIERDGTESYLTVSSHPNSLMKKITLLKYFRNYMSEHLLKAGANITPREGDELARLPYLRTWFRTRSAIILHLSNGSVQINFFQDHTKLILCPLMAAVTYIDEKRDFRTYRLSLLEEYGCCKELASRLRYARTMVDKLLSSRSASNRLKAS

T2 sequence (P09874 whole entry): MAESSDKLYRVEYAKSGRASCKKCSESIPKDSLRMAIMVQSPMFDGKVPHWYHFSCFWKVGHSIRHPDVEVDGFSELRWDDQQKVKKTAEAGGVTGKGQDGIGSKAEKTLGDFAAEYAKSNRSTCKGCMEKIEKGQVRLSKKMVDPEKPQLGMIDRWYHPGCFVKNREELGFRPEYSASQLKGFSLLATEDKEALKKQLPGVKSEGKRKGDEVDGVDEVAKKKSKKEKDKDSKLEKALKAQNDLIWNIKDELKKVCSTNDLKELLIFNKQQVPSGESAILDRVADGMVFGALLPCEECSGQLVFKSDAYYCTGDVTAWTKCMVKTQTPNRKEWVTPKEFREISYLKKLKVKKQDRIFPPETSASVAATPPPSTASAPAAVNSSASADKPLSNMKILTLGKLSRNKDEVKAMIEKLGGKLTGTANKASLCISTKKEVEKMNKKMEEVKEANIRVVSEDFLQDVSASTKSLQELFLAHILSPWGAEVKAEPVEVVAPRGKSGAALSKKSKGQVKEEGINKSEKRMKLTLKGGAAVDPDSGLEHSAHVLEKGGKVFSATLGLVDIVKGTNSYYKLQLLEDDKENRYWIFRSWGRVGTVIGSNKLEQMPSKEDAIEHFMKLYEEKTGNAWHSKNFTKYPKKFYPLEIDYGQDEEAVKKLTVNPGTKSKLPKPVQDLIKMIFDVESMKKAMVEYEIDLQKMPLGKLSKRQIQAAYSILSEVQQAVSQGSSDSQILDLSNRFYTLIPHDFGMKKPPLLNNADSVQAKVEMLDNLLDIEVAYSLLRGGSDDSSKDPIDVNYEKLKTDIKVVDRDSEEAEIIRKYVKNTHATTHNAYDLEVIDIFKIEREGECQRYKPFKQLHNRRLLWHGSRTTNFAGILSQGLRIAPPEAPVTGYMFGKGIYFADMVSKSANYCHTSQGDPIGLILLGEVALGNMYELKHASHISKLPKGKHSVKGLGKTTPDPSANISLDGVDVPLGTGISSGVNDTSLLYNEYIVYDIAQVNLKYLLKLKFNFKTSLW
Sequence of CDK6/cyclin D3 (P30281 whole entry): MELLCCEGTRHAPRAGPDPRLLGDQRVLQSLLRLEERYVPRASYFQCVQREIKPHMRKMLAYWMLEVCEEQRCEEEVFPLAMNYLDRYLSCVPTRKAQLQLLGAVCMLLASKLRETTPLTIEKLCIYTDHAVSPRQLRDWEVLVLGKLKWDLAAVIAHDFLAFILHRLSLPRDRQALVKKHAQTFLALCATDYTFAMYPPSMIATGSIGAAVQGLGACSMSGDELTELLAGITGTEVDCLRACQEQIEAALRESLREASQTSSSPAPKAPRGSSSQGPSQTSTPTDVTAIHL
Sequence of CDK6/cyclin D3 (Q00534 whole entry): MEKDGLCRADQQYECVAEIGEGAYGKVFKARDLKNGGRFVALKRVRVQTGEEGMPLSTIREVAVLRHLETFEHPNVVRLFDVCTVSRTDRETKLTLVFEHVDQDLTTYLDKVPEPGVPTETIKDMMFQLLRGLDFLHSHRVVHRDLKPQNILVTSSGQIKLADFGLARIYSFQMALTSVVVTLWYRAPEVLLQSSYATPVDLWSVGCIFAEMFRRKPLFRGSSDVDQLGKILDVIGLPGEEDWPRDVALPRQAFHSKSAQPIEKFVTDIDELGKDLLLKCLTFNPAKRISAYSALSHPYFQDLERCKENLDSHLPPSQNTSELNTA

SMILES: CC(C)N1CCC(NC(=O)c2cc(Cn3c(=O)[nH]c(=O)c4ccccc43)ccc2F)C1 (centres undefined)
- IC50 [1]: < 3120 nM

SMILES: C#CCSc1nc2nc(C)cc(Nc3cc(-c4ccccc4)[nH]n3)n2n1
- IC50 [2]: 2150 nM
- IC50 [3]: 4360 nM

SMILES: O=C(c1ccc(Cc2n[nH]c(=O)c3cccnc23)cc1)n1cccc1
- IC50 [4]: 36 nM

SMILES: O=C(CCN1CCN(C(=O)Nc2ccnc3ccccc23)CC1)NO
- IC50 [5]: 1740 nM

SMILES: CC(c1nc2c(C(N)=O)cccc2[nH]1)N1CC(=O)N(c2ccc(C(F)(F)F)cc2)C1=S (centres undefined)
- IC50 [6]: 25 nM
- IC50 [7]: 1000 nM

SMILES: CC(=O)N1N=C(c2c(O)c3ccccc3oc2=O)CC1c1ccccc1Cl (centres undefined)
- Ki [8]: 13.4 nM

SMILES: O=C(CCNC(=O)c1ccc(CO)cc1)N[C@@H](Cc1cnnn1CCc1ccccc1)C(=O)NCc1cn(CCP(=O)(O)O)nn1
- IC50 [9]: 3370 nM
